Columns and labels:
[1] = Solubility of benzoyl peroxide; assay type: physicochemical; conditions: by weight of the solubilized benzoyl peroxide topical formulation
Protocol: Benzoyl peroxide is a crystalline solid with a melting point of 103° C. to 106° C., and is insoluble in water.
Benzoyl peroxide is soluble in organic solvents, but most organic solvents are toxic and therefore not suitable for pharmaceutical/cosmetic use. Polar organic solvents such as acetone and ethanol are less toxic, but the flammability of these solvents as well as the ability of these solvents to irritate and strip the skin of its protective mantle limit their use in pharmaceutical or cosmetic compositions.
In contrast to prior art formulations of benzoyl peroxide, the benzoyl peroxide will actively go into solution at levels as high as 10% by weigh of the solubilized benzyl peroxide topical formulation. Furthermore, the solubilized benzoyl peroxide topical formulation is translucent and has increased efficacy.

[2] = cited from earlier work

## O=C(OOC(=O)c1ccccc1)c1ccccc1 [Benzoyl peroxide]
[1]
  level at which benzoyl peroxide goes into solution: ≤ 10%
[2]; organic solvents
  solubility in organic solvents: soluble
[2]; water
  solubility in water: insoluble

From patent US9308268B2, “Solubilized benzoyl peroxyde acne” (TRANSDERMAL CORP, priority 2005, dated 2016)
